One experiment has as its target T1, Cbl (aa49-434) (Homo sapiens, UniProt P22681).
T1 construct: Cbl (aa49-434, in-house); made in house
T1 sequence (P22681 49-434): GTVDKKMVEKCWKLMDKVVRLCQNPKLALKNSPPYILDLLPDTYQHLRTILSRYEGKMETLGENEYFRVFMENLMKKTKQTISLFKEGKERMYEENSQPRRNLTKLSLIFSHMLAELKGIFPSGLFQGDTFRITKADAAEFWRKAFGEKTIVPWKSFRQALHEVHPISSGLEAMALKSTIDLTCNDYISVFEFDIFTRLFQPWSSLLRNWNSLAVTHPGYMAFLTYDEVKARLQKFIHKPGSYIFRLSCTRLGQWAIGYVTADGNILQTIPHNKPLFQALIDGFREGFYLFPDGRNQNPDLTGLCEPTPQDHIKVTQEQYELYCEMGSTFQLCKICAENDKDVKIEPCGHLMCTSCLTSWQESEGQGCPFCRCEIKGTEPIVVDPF
The experiment in a line: Co-expressed Cbl with BirA biochemical assay (CBL/E2-Ub binding, HTRF). The settings on record: 0.6 nM Cbl co-expressed with BirA, read-out: co-express CBL/E2-Ub-binding assay IC50. From the text:
(§1) The assay in the absence of a Cbl-b/Cbl inhibitor, where phosphorylation of Cbl-b/Cbl by the Src kinase allows UbcH5B-Ub to bind to Cbl-b/Cbl and brings the Bodipy-Fluorescein tagged ubiquitin in proximity to the streptavidin-terbium bound to the N-terminal biotinylated Avi-tagged Cbl-b/Cbl. […] The lack of a FRET signal indicates Cbl-b/Cbl is inhibited by the Cbl-b/Cbl inhibitor.
A general note: In TR-FRET formats the signal depends on donor and acceptor labels being close together.

The target of another experiment is T2, Cbl-b (aa36-427) (Homo sapiens, UniProt Q13191).
T2 construct: Cbl-b (aa36-427, in-house); made in house
T2 sequence (Q13191 36-427): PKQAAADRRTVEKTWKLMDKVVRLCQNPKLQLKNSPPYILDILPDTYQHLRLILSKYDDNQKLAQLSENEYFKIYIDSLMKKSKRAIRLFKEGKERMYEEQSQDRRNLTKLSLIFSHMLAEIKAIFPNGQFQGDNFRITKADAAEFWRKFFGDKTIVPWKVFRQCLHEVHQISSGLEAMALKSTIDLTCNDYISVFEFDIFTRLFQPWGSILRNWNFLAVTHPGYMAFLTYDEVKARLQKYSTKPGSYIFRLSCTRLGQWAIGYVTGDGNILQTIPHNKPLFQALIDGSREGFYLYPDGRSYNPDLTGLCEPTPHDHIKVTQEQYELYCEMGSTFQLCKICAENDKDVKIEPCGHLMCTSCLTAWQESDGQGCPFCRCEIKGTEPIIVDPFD
The experiment in a line: Co-expressed Cbl-b with BirA biochemical assay (CBLB/E2-Ub binding, HTRF). The settings on record: 0.6 nM Cbl-b co-expressed with BirA, HTRF; read-out: co-express CBLB/E2-Ub-binding assay IC50.
Text: as §1

pIC50: −log10 of the molar value.

Turning to `Cn1cnnc1[C@]1(c2cccc(NC(=O)c3cc(CNC4(C)CCC4)c4c(n3)C(C)(C)CO4)c2)C[C@H](CC#N)C1` [Compound C23, N-(3-((1s, 3s)-3-(cyanomethyl)-1-(4-methyl-4H-1,2,4-triazol-3-yl)cyclobutyl)phenyl)-3,3-dimethyl-7-(((1-methylcyclobutyl)amino)methyl)-2,3-dihydrofuro[3,2-b]pyridine-5-carboxamide], the pIC50 on Cbl (aa49-434) was 7.00; at Cbl-b (aa36-427), 8.20.

As for `Cn1ccc2nc(C(=O)Nc3cccc([C@]4(c5nncn5C)C[C@@H](CC#N)C4)c3)cc(CNC3(C)CCC3)c21` [Compound B56, N-(3-((1s, 3s)-3-(cyanomethyl)-1-(4-methyl-4H-1,2,4-triazol-3-yl)cyclobutyl)phenyl)-1-methyl-7-(((1-methylcyclobutyl)amino)methyl)-1H-pyrrolo[3,2-b]pyridine-5-carboxamide], the pIC50 on Cbl (aa49-434) was 7.49; on Cbl-b (aa36-427), 8.85.

As for `C[C@H](NCc1cc(C(=O)Nc2cccc([C@]3(c4nncn4C)C[C@@H](C)C3)c2)nc2cc[nH]c12)C1CCC1` [Compound B35, 7-((((S)-1-cyclobutylethyl)amino)methyl)-N-(3-((1s,3R)-3-methyl-1-(4-methyl-4H-1,2,4-triazol-3-yl)cyclobutyl)phenyl)-1H-pyrrolo[3,2-b]pyridine-5-carboxamide], the pIC50 at Cbl (aa49-434) is 8.96; on Cbl-b (aa36-427), 9.15.

`C[C@H]1CCCN(Cc2cc(C(=O)Nc3cccc([C@]4(c5nncn5C)C[C@@H](CC#N)C4)c3)nc3cn[nH]c23)C1` [Compound B8, N-(3-((1s,3R)-3-(cyanomethyl)-1-(4-methyl-4H-1,2,4-triazol-3-yl)cyclobutyl)phenyl)-7-(((S)-3-methylpiperidin-1-yl)methyl)-1H-pyrazolo[4,3-b]pyridine-5-carboxamide]: the pIC50 on Cbl (aa49-434) is 7.68; at Cbl-b (aa36-427) it was 8.74.

Turning to `C[C@H](NCc1cc(C(=O)Nc2cccc([C@]3(c4nncn4C)C[C@@H](CC#N)C3)c2)nc2cc[nH]c12)C1CCCC1` [Compound B25, N-(3-((1s,3R)-3-(cyanomethyl)-1-(4-methyl-4H-1,2,4-triazol-3-yl)cyclobutyl)phenyl)-7-((((S)-1-cyclopentylethyl)amino)methyl)-1H-pyrrolo[3,2-b]pyridine-5-carboxamide], the results for the pIC50 at Cbl (aa49-434) and on Cbl-b (aa36-427) were 8.96 and 8.92, respectively.

In the case of `Cn1cnnc1[C@]1(c2cccc(NC(=O)c3cc(CNC4(C)CC4)cn4ccnc34)c2)C[C@@H](C)C1` [Compound A90, N-(3-((1r, 3r)-3-methyl-1-(4-methyl-4H-1,2,4-triazol-3-yl)cyclobutyl)phenyl)-6-(((1-methylcyclopropyl)amino)methyl)imidazo[1,2-a]pyridine-8-carboxamide], the pIC50 was 8.49 at Cbl (aa49-434) and 9.30 at Cbl-b (aa36-427).

Regarding `Cn1cnnc1[C@]1(c2cccc(NC(=O)c3cc(CNCC4CCC4)cn4c(F)cnc34)c2)C[C@H](C)C1` [Compound A52, 6-(((cyclobutylmethyl)amino)methyl)-3-fluoro-N-(3-((1s, 3s)-3-methyl-1-(4-methyl-4H-1,2,4-triazol-3-yl)cyclobutyl)phenyl)imidazo[1,2-a]pyridine-8-carboxamide], the pIC50 was 8.47 at Cbl (aa49-434) and 9.10 on Cbl-b (aa36-427).

As for `CC(C)CNCc1cc(C(=O)Nc2cncc([C@]3(c4nncn4C)C[C@@H](C)C3)c2)nc2c(F)c[nH]c12` [Compound B48, 3-fluoro-7-((isobutylamino)methyl)-N-(5-((1s, 3s)-3-methyl-1-(4-methyl-4H-1,2,4-triazol-3-yl)cyclobutyl)pyridin-3-yl)-1H-pyrrolo[3,2-b]pyridine-5-carboxamide], the results for the pIC50 on Cbl (aa49-434) and on Cbl-b (aa36-427) were 8.49 and 9.05, respectively.

Turning to `C[C@H](NCc1cc(C(=O)Nc2cncc([C@]3(c4nncn4C)C[C@@H](C)C3)c2)c2ncc(F)n2c1)C1CC1` [Compound A72, 6-({[(1S)-1-cyclopropylethyl]amino}methyl)-3-fluoro-N-{5-[(1r, 3s)-3-methyl-1-(4-methyl-1,2,4-triazol-3-yl)cyclobutyl]pyridin-3-yl}imidazo[1,2-a]pyridine-8-carboxamide], the results for the pIC50 at Cbl (aa49-434) and on Cbl-b (aa36-427) were 9.22 and 9.40, respectively.

For the molecule `Cn1ccc2c(CNCC3CCC3)cc(C(=O)Nc3cccc([C@]4(c5nncn5C)C[C@@H](C)C4)c3)nc21` [Compound B45, 4-(((cyclobutylmethyl)amino)methyl)-1-methyl-N-(3-((1s, 3s)-3-methyl-1-(4-methyl-4H-1,2,4-triazol-3-yl)cyclobutyl)phenyl)-1H-pyrrolo[2,3-b]pyridine-6-carboxamide], the pIC50 was 7.78 at Cbl (aa49-434) and 8.77 at Cbl-b (aa36-427).

For `C[C@H](NCc1cc(C(=O)Nc2cccc([C@]3(c4nncn4C)C[C@@H](C)C3)c2)c2ncc(Cl)n2c1)C1CC1` [Compound A58, 3-chloro-6-((((S)-1-cyclopropylethyl)amino)methyl)-N-(3-((1s,3R)-3-methyl-1-(4-methyl-4H-1,2,4-triazol-3-yl)cyclobutyl)phenyl)imidazo[1,2-a]pyridine-8-carboxamide], the figures for the pIC50 at Cbl (aa49-434) and at Cbl-b (aa36-427) were 8.59 and 9.15, respectively.

As to `Cn1cnnc1[C@]1(c2cccc(NC(=O)c3cc(CNC4(C)CCC4)c4c(n3)C(F)(F)CC4)c2)C[C@H](CC#N)C1` [Compound C42, N-(3-((1s, 3s)-3-(cyanomethyl)-1-(4-methyl-4H-1,2,4-triazol-3-yl)cyclobutyl)phenyl)-7,7-difluoro-4-(((1-methylcyclobutyl)amino)methyl)-6,7-dihydro-5H-cyclopenta[b]pyridine-2-carboxamide], the pIC50 on Cbl (aa49-434) was 7.60; on Cbl-b (aa36-427), 8.82.

Turning to `C[C@H]1CCCN(Cc2cc(C(=O)Nc3cccc([C@]4(Cc5nncn5C)C[C@@H](C#N)C4)c3)nc3c2OCC3(C)C)C1` [Compound C11, 3,3-dimethyl-7-{[(3S)-3-methylpiperidin-1-yl]methyl}-N-{3-[(1r, 3r)-3-cyano-1-[(4-methyl-1,2,4-triazol-3-yl)methyl]cyclobutyl]phenyl}-2H-furo[3,2-b]pyridine-5-carboxamide], the pIC50 was 8.82 at Cbl (aa49-434) and 9.10 at Cbl-b (aa36-427).

As for `Cn1cnnc1[C@]1(c2cccc(NC(=O)c3cc(CNC4(C)CC4)cn4c(F)cnc34)c2)C[C@H](C)C1` [Compound A45, 3-fluoro-N-(3-((1s, 3s)-3-methyl-1-(4-methyl-4H-1,2,4-triazol-3-yl)cyclobutyl)phenyl)-6-(((1-methylcyclopropyl)amino)methyl)imidazo[1,2-a]pyridine-8-carboxamide], the pIC50 is 8.46 at Cbl (aa49-434) and 8.92 at Cbl-b (aa36-427).

For the molecule `C[C@H](NCc1cc(C(=O)Nc2cccc([C@]3(c4nncn4C)C[C@@H](CC#N)C3)c2)c2nccn2c1)C1CCCC1` [Compound A31, N-(3-((1s,3R)-3-(cyanomethyl)-1-(4-methyl-4H-1,2,4-triazol-3-yl)cyclobutyl)phenyl)-6-((((S)-1-cyclopentylethyl)amino)methyl)imidazo[1,2-a]pyridine-8-carboxamide], the pIC50 on Cbl (aa49-434) was 8.89; at Cbl-b (aa36-427) it was 9.15.

Regarding `Cn1cnnc1[C@]1(c2cccc(NC(=O)c3cc(CNCC4CCC4)cn4ccnc34)c2)C[C@H](C)C1` [Compound A22, 6-(((cyclobutylmethyl)amino)methyl)-N-(3-((1s, 3s)-3-methyl-1-(4-methyl-4H-1,2,4-triazol-3-yl)cyclobutyl)phenyl)imidazo[1,2-a]pyridine-8-carboxamide], the figures for the pIC50 on Cbl (aa49-434) and on Cbl-b (aa36-427) were 8.44 and 8.96, respectively.

The values are drawn from patent US20250163047A1, “HETEROCYCLIC COMPOUNDS, COMPOSITIONS THEREOF, AND METHODS OF TREATMENT THEREWITH” (BeiGene, Ltd., priority 2022, published 2025).
